The assay addresses T1, P2X7 receptor (Homo sapiens, UniProt Q99572).
T1 construct: host or cells: THP-1 cells differentiated with LPS and IFN-γ
T1 sequence (Q99572 1-595): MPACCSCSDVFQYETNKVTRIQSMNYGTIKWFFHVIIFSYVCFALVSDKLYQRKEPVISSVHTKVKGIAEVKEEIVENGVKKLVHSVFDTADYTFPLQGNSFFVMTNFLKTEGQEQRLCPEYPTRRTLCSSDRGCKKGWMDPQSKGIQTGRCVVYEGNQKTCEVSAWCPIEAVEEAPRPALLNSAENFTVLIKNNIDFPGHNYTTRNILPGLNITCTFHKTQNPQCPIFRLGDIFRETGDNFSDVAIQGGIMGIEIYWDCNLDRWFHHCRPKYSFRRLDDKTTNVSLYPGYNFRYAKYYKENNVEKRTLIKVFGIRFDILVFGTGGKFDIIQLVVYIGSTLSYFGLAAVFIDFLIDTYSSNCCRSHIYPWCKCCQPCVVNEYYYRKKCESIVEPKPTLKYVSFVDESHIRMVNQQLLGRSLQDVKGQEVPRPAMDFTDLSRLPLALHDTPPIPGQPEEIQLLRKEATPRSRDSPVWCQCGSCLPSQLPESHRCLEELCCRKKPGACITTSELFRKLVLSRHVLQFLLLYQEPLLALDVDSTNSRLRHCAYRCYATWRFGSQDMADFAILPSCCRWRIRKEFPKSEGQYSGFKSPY
Put plainly: IL-1β release assay in differentiated THP-1 cells stimulated with BzATP (Example 9). The conditions noted are these: for inhibition at 0.3 µM: 0.3 μM compound, differentiated THP-1 cells, BzATP 250 uM, read-out: IL-1β % Inhib. @ 0.3 μM; for IC50: THP-1 cells, BzATP-stimulated IL-1β release, four parameter logistic fit; for inhibition: THP-1, read-out: IL-1β % Inhib. Set-up: inhibition: dose or concentration left out as unconfirmed. The assay is classed as cell-based. Summed up:
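THP-1 cells differentiated 16 h with LPS and IFN-γ (100 ng/mL each), re-primed 2 h with LPS, then compound-pretreated 30 min before 250 uM BzATP for 45 min. Supernatant IL-1β quantified by ELISA; background-adjusted percent inhibition fitted to four-parameter logistic for IC50.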

Where two headings read alike, the source gives them in different places.

With `O=C(Nc1cccc2c(=O)n(CC3CCOCC3)ccc12)c1ccc2ccccc2c1` [Compound 1098], the inhibition at 0.3 µM ('+' class symbols) was in the range of 0 to 25%.
Turning to `O=C(Cc1ccccc1F)Nc1cccc2c(=O)n(CCN3CCOCC3)ccc12` [Compound 1204], the inhibition at 0.3 µM (symbols + to ++++) was 0 to 25%.
With `O=C(Nc1cccc2c(=O)n(CCN3CCOCC3)ccc12)c1ccc(Cl)cc1Cl` [Compound 1189], where the note is “'+' class symbols”, the inhibition at 0.3 µM fell in the range of 0 to 25%.
With `CCOc1ccccc1CC(=O)Nc1cccc2c(=O)n(C)ccc12` [Compound 1307], the inhibition at 0.3 µM (symbols + to ++++) fell in the range of 0 to 25%.
As for `O=C(Cc1cccc(C(F)(F)F)c1F)Nc1cccc2c(=O)n(Cc3ccc(C(F)(F)F)nc3)ccc12` [Compound 1626], the IC50 was above 1000 nM. Moreover, under “"+" class symbols”, the inhibition at 0.3 µM lay within 0 to 25%.
`O=C(CC1CC2CC[C@H]1C2)Nc1cccc2c(=O)n(Cc3ccc(OC(F)(F)F)cc3)ccc12` (some centres unmarked) [Compound 1593]: the inhibition was 0 to 25%.
For the molecule `O=C(Nc1cccc2c(=O)n(Cc3cccnc3)ccc12)c1cccc2ccccc12` [Compound 1447], the inhibition is 0 to 25%.
On the same count and under the same terms, to `O=C(Nc1cccc2c(=O)n(Cc3cccnc3)ccc12)c1cc(Cl)ccc1Cl` [Compound 1442] belongs 0 to 25%.
Regarding `O=C(Cc1ccc2c(c1)OCO2)Nc1cccc2c(=O)n(CCN3CCOCC3)ccc12` [Compound 1217], the inhibition at 0.3 µM (symbols + to ++++) is 0 to 25%.
Turning to `Cc1cc(C(=O)Nc2cccc3c(=O)n(CC4CCOCC4)ccc23)ccc1F` [Compound 1124], the inhibition at 0.3 µM ('+' class symbols) lay within 0 to 25%.
As to `O=C(CCc1cccc(Cl)c1)Nc1cccc2c(=O)n(CCN3CCOCC3)ccc12` [Compound 1242], the inhibition at 0.3 µM (symbols + to ++++) lay in the range of 26 to 50%.
Regarding `COCCn1ccc2c(NC(=O)Cc3ccc(Cl)c(C(F)(F)F)c3)cccc2c1=O` [Compound 1623, 2-(4-Chloro-3-trifluoromethyl-phenyl)-N-[2-(2-methoxy-ethyl)-1-oxo-1,2-dihydro-isoquinolin-5-yl]-acetamide], 9.24 nM corresponded to half-maximal inhibition (IC50). Besides, the inhibition at 0.3 µM ("+" class symbols) was at least 76%.
For the molecule `Cc1ccc(Cl)c(C(=O)Nc2cccc3c(=O)n(CC(C)(C)C)ccc23)c1` [Compound 1282], the inhibition at 0.3 µM (symbols + to ++++) lay in the range of 0 to 25%.
Regarding `Cc1ccccc1CC(=O)Nc1cccc2c(=O)n(CCN(C)C)ccc12` [Compound 1157], the inhibition at 0.3 µM ('+' class symbols) was in the range of 0 to 25%.
With `COc1ccccc1CC(=O)Nc1cccc2c(=O)n(CCN(C)C)ccc12` [Compound 1409], the inhibition fell in the range of 0 to 25%.
The same measure, in the same setting: to `O=C(CCc1ccc(Cl)cc1)Nc1cccc2c(=O)n(CCCN3CCCC3=O)ccc12` [Compound 1537] belongs 26 to 50%; to `O=C(CCc1ccccc1Cl)Nc1cccc2c(=O)n(CCCN3CCCC3=O)ccc12` [Compound 1501], 0 to 25%; to `COCCn1ccc2c(NC(=O)c3cccc(C)c3)cccc2c1=O` [Compound 1428], 0 to 25%.
For `O=C(CCc1ccccc1Cl)Nc1cccc2c(=O)n(Cc3ccc(OC(F)(F)F)cc3)ccc12` [Compound 1557], the inhibition was in the range of 0 to 25%.
On the same count and under the same terms, with `COc1cc(OC)cc(C(=O)Nc2cccc3c(=O)n(CCCN4CCCC4=O)ccc23)c1` [Compound 1512] the figure was 0 to 25%.
`Cc1ccccc1C(=O)Nc1cccc2c(=O)n(CC3CCOCC3)ccc12` [Compound 1085]: the inhibition at 0.3 µM ('+' class symbols) is 0 to 25%.
Consider `O=C(CCc1ccc2c(c1)OCO2)Nc1cccc2c(=O)n(CCCN3CCCC3=O)ccc12` [Compound 1502], for which the inhibition was in the range of 0 to 25%.
On to `Cn1ccc2c(NC(=O)CC3CC4CC[C@H]3C4)cccc2c1=O` (some centres unmarked) [Compound 1302], for which the inhibition at 0.3 µM (symbols + to ++++) lay within 0 to 25%.
Turning to `CN1CCC(Cn2ccc3c(NC(=O)c4ccc5ccccc5c4)cccc3c2=O)CC1` [Compound 1471], the inhibition was 0 to 25%.
Take `COCCn1ccc2c(NC(=O)c3ccc(Cl)cc3C)cccc2c1=O` [Compound 1325]: the inhibition at 0.3 µM (symbols + to ++++) lay in the range of 26 to 50%.
Turning to `O=C(Nc1cccc2c(=O)n(CC3CCOCC3)ccc12)c1cc2ccccc2o1` [Compound 1109], the inhibition at 0.3 µM ('+' class symbols) lay within 0 to 25%.
On the same count and under the same terms, to `COc1cccc(CCC(=O)Nc2cccc3c(=O)n(C)ccc23)c1` [Compound 1058] belongs 0 to 25%.

(Values after US8546579B2, “Bicycloheteroaryl compounds as P2X7 modulators and uses thereof” (Evotec (US) Inc., priority 2006, dated 2013).)
